According to PubChem BioAssay (NCI):
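In this assay, cells in 96-well plates receive the compound at five concentrations for 48 hours. Endpoints are linearly interpolated between the surrounding concentrations. GI50 is the concentration that inhibits growth by half. TGI: total growth inhibition.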

Tests used:
Experiment in all cases: NCI-60 cell line screen, 48 h; in the data active = GI50 below about 0.43 µM; inactive = the rest
[1] = tested on: ACHN renal
[2] = tested on: NCI-H23 lung
[3] = tested on: UACC-257 melanoma
[4] = tested on: CAKI-1 renal
[5] = tested on: IGROV1 ovarian
[6] = tested on: OVCAR-8 ovarian
[7] = tested on: UO-31 renal
[8] = tested on: HOP-62 NSCLC
[9] = tested on: MALME-3M melanoma
[10] = tested on: SN12C renal
[11] = tested on: M14 melanoma
[12] = tested on: SNB-75 CNS
[13] = tested on: SNB-19 CNS
[14] = tested on: NCI/ADR-RES ovarian
[15] = tested on: SK-MEL-2 melanoma
[16] = tested on: MDA-MB-435
[17] = tested on: OVCAR-4 ovarian
[18] = tested on: SK-OV-3 ovarian
[19] = tested on: KM12 colon
[20] = tested on: HL-60(TB) leukemia
[21] = tested on: HOP-92 NSCLC
[22] = tested on: HS 578T breast
[23] = tested on: HCT-15 colon
[24] = tested on: A549 NSCLC
[25] = tested on: RPMI-8226 leukemia
[26] = tested on: OVCAR-3 ovarian
[27] = tested on: T-47D breast
[28] = tested on: TK-10 renal
[29] = tested on: PC-3 prostate
[30] = tested on: COLO 205 colon
[31] = tested on: MCF7 breast
[32] = tested on: CCRF-CEM leukemia
[33] = tested on: U251 CNS
[34] = tested on: A498 renal
[35] = tested on: MOLT-4 leukemia
[36] = tested on: DU-145 prostate
[37] = tested on: SF-268 CNS
[38] = tested on: EKVX NSCLC
[39] = tested on: LOX IMVI melanoma
[40] = tested on: MDA-MB-231 breast
[41] = tested on: 786-0 renal
[42] = tested on: SK-MEL-28 melanoma
[43] = tested on: NCI-H522 lung
[44] = tested on: NCI-H226 lung
[45] = tested on: K-562 leukemia
[46] = tested on: RXF 393 renal
[47] = tested on: SF-539 CNS
[48] = tested on: BT-549 breast
[49] = tested on: HT29 colon
[50] = tested on: SW-620 colon
[51] = tested on: HCC-2998 colon
[52] = tested on: UACC-62 melanoma
[53] = tested on: SR leukemia
[54] = tested on: SF-295 CNS
[55] = tested on: HCT-116 colon
[56] = tested on: NCI-H460 lung

CCc1cccc2c3c(sc12)C(c1ccc(Cl)cc1)C(C#N)=C(/N=C/c1ccc(Cl)cc1)O3 (configuration not stated)
17000 nM: TGI [33]
1220 nM: TGI [12]
8380 nM: TGI [14]
active: GI50 [5] 377 nM | GI50 [12] 104 nM | GI50 [14] 214 nM | GI50 [16] 162 nM | GI50 [19] 417 nM | GI50 [23] 317 nM | GI50 [31] 248 nM | GI50 [34] 280 nM | GI50 [43] 206 nM | GI50 [45] 234 nM | GI50 [50] 360 nM | GI50 [52] 306 nM | GI50 [53] 290 nM | GI50 [54] 177 nM | GI50 [55] 347 nM
36300 nM: TGI [53]
44500 nM: TGI [52]
inactive: GI50 [1] 779 nM | GI50 [2] 2510 nM | GI50 [3] 21400 nM | GI50 [4] 1290 nM | GI50 [6] 1600 nM | GI50 [7] 1690 nM | GI50 [8] 2080 nM | GI50 [9] 4720 nM | GI50 [10] 1930 nM | GI50 [11] 582 nM | GI50 [13] 1200 nM | GI50 [15] 797 nM | GI50 [17] > 50000 nM | GI50 [18] 2790 nM | GI50 [20] 577 nM | GI50 [21] 7660 nM | GI50 [22] 1180 nM | GI50 [24] 670 nM | GI50 [25] 1060 nM | GI50 [26] 433 nM | GI50 [27] 1130 nM | GI50 [28] 8460 nM | GI50 [29] 556 nM | GI50 [30] 1590 nM | GI50 [32] 892 nM | GI50 [33] 1660 nM | GI50 [35] 1650 nM | GI50 [36] 1270 nM | GI50 [37] 10900 nM | GI50 [38] 1340 nM | GI50 [39] 905 nM | GI50 [40] 2400 nM | GI50 [41] 1630 nM | GI50 [42] 9500 nM | GI50 [44] 6310 nM | GI50 [46] 578 nM | GI50 [47] 755 nM | GI50 [48] 2360 nM | GI50 [49] 1200 nM | GI50 [51] 1080 nM | GI50 [56] 1020 nM
45500 nM: TGI [21]
> 50000 nM: TGI [1] | TGI [2] | TGI [3] | TGI [4] | TGI [5] | TGI [6] | TGI [7] | TGI [9] | TGI [10] | TGI [11] | TGI [17] | TGI [18] | TGI [19] | TGI [20] | TGI [23] | TGI [24] | TGI [25] | TGI [27] | TGI [28] | TGI [29] | TGI [30] | TGI [31] | TGI [32] | TGI [35] | TGI [36] | TGI [37] | TGI [38] | TGI [39] | TGI [40] | TGI [41] | TGI [42] | TGI [44] | TGI [45] | TGI [48] | TGI [49] | TGI [50] | TGI [51] | TGI [55] | TGI [56]
788 nM: TGI [16]
2090 nM: TGI [47]
25200 nM: TGI [26]
2660 nM: TGI [46]
4920 nM: TGI [34]
23600 nM: TGI [15]
2960 nM: TGI [43]
15800 nM: TGI [13]
22300 nM: TGI [8]
806 nM: TGI [54]
35100 nM: TGI [22]
